Entries after “also recorded” stand apart in the source; their conditions may differ.
What was measured:
IL-10 = details: LPS-stimulated hPBMC and human whole blood; background statement; cited from earlier work
[1] = Chemical stability of Compound A towards hydrolysis; type: physicochemical
T cells = details: background statement; cited from earlier work
IL-1β = details: LPS-stimulated hPBMC and human whole blood; background statement; cited from earlier work
TNF-α = details: LPS-stimulated hPBMC and human whole blood; background statement; cited from earlier work

Q: With O=C1CC[C@H](N2Cc3c(OCc4ccc(CN5CCOCC5)cc4)cccc3C2=O)C(=O)N1 [Compound A, (S)-3-(4-((4-(morpholinomethyl)benzyl)oxy)-1-oxoisoindolin-2-yl)piperidine-2,6-dione] as the molecule, how does the “Effect on IL-10, in words” value (IL-10) read?
A: stimulates

Q: What about the “Susceptibility to hydrolysis, in words” value [1] of the same molecule?
A: prone to hydrolysis; also recorded: easily degraded by hydrolysis

Q: What about the “Co-stimulation of T cells, in words” value (T cells) of the same molecule?
A: potent co-stimulator

Q: What about the “Inhibition of IL-1β, in words” value (IL-1β) of the same molecule?
A: potently inhibits

Q: What about the “Degradation of TNF-α mRNA, in words” value (TNF-α) of the same molecule?
A: enhances

Q: And the “Inhibition of TNF-α, in words” value (TNF-α)?
A: markedly inhibits
